Reference: PubChem BioAssay (NCI)
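Method: 48-hour compound exposure of cells in 96-well plates, five concentrations, linear interpolation of endpoints. Here, GI50 denotes the concentration required for 50% inhibition of growth. TGI: concentration producing complete growth inhibition.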

Columns and labels:
Test in all cases: NCI tumour cell line growth inhibition, 48 h
[1] = system: A498 renal
[2] = system: A549 NSCLC
[3] = system: BT-549 breast
[4] = system: CCRF-CEM leukemia
[5] = system: COLO 205 colon
[6] = system: DU-145 prostate
[7] = system: EKVX NSCLC
[8] = system: HCC-2998 colon
[9] = system: HCT-116 colon
[10] = system: HOP-62 NSCLC
[11] = system: HOP-92 NSCLC
[12] = system: HS 578T breast
[13] = system: KM12 colon
[14] = system: LOX IMVI melanoma
[15] = system: M14 melanoma
[16] = system: MALME-3M melanoma
[17] = system: MCF7 breast
[18] = system: MDA-MB-231 breast
[19] = system: MDA-MB-435
[20] = system: NCI-H226 lung
[21] = system: NCI-H23 lung
[22] = system: NCI-H460 lung
[23] = system: NCI-H522 lung
[24] = system: NCI/ADR-RES ovarian
[25] = system: OVCAR-3 ovarian
[26] = system: OVCAR-4 ovarian
[27] = system: OVCAR-5 ovarian
[28] = system: OVCAR-8 ovarian
[29] = system: RXF 393 renal
[30] = system: SF-268 CNS
[31] = system: SF-295 CNS
[32] = system: SF-539 CNS
[33] = system: SK-MEL-2 melanoma
[34] = system: SK-MEL-28 melanoma
[35] = system: SK-MEL-5 melanoma
[36] = system: SK-OV-3 ovarian
[37] = system: SN12C renal
[38] = system: SNB-19 CNS
[39] = system: SNB-75 CNS
[40] = system: SW-620 colon
[41] = system: T-47D breast
[42] = system: TK-10 renal
[43] = system: U251 CNS
[44] = system: UACC-257 melanoma
[45] = system: UO-31 renal
[46] = system: ACHN renal
[47] = system: CAKI-1 renal
[48] = system: HCT-15 colon
[49] = system: HT29 colon
[50] = system: IGROV1 ovarian
[51] = system: K-562 leukemia
[52] = system: MOLT-4 leukemia
[53] = system: PC-3 prostate
[54] = system: RPMI-8226 leukemia
[55] = system: UACC-62 melanoma
[56] = system: 786-0 renal

SMILES: COCC1CCCN1c1ccc(C=N/C(C#N)=C(\N)C#N)cc1 (stereo unspecified)
- GI50 [1]: > 100 µM
- TGI [1]: > 100 µM
- GI50 [2]: 14 µM
- TGI [2]: > 100 µM
- GI50 [3]: 98.9 µM
- TGI [3]: > 100 µM
- GI50 [4]: 3.22 µM
- TGI [4]: > 100 µM
- GI50 [5]: > 100 µM
- TGI [5]: > 100 µM
- GI50 [6]: 6.25 µM
- TGI [6]: > 100 µM
- GI50 [7]: > 100 µM
- TGI [7]: > 100 µM
- GI50 [8]: > 100 µM
- TGI [8]: > 100 µM
- GI50 [9]: 9.19 µM
- TGI [9]: > 100 µM
- GI50 [10]: 43.6 µM
- TGI [10]: > 100 µM
- GI50 [11]: 14.3 µM
- TGI [11]: 46 µM
- GI50 [12]: > 100 µM
- TGI [12]: > 100 µM
- GI50 [13]: > 100 µM
- TGI [13]: > 100 µM
- GI50 [14]: > 100 µM
- TGI [14]: > 100 µM
- GI50 [15]: > 100 µM
- TGI [15]: > 100 µM
- GI50 [16]: 7.75 µM
- TGI [16]: > 100 µM
- GI50 [17]: 33.4 µM
- TGI [17]: > 100 µM
- GI50 [18]: 18.7 µM
- TGI [18]: > 100 µM
- GI50 [19]: > 100 µM
- TGI [19]: > 100 µM
- GI50 [20]: 4.68 µM
- TGI [20]: > 100 µM
- GI50 [21]: > 100 µM
- TGI [21]: > 100 µM
- GI50 [22]: > 100 µM
- TGI [22]: > 100 µM
- GI50 [23]: 15.8 µM
- TGI [23]: 56.2 µM
- GI50 [24]: > 100 µM
- TGI [24]: > 100 µM
- GI50 [25]: 46.1 µM
- TGI [25]: > 100 µM
- GI50 [26]: > 100 µM
- TGI [26]: > 100 µM
- GI50 [27]: > 100 µM
- TGI [27]: > 100 µM
- GI50 [28]: 45.3 µM
- TGI [28]: > 100 µM
- GI50 [29]: 38.4 µM
- TGI [29]: > 100 µM
- GI50 [30]: 67.8 µM
- TGI [30]: > 100 µM
- GI50 [31]: > 100 µM
- TGI [31]: > 100 µM
- GI50 [32]: 40.3 µM
- TGI [32]: > 100 µM
- GI50 [33]: > 100 µM
- TGI [33]: > 100 µM
- GI50 [34]: > 100 µM
- TGI [34]: > 100 µM
- GI50 [35]: 98.2 µM
- TGI [35]: > 100 µM
- GI50 [36]: 27.5 µM
- TGI [36]: > 100 µM
- GI50 [37]: 4.85 µM
- TGI [37]: 84.5 µM
- GI50 [38]: 36.7 µM
- TGI [38]: > 100 µM
- GI50 [39]: 23.2 µM
- TGI [39]: 58.1 µM
- GI50 [40]: > 100 µM
- TGI [40]: > 100 µM
- GI50 [41]: > 100 µM
- TGI [41]: > 100 µM
- GI50 [42]: 49.2 µM
- TGI [42]: > 100 µM
- GI50 [43]: 17.2 µM
- TGI [43]: > 100 µM
- GI50 [44]: > 100 µM
- TGI [44]: > 100 µM
- GI50 [45]: 4.98 µM
- TGI [45]: > 100 µM

SMILES: Nc1ncnc2c1sc1nc3ccccc3n12
- TGI [1]: > 100 µM
- TGI [2]: > 100 µM
- TGI [46]: > 100 µM
- TGI [3]: > 100 µM
- TGI [47]: > 100 µM
- TGI [4]: > 100 µM
- TGI [5]: > 100 µM
- TGI [6]: > 100 µM
- TGI [7]: > 100 µM
- TGI [8]: > 100 µM
- TGI [48]: > 100 µM
- TGI [10]: > 100 µM
- TGI [11]: > 100 µM
- TGI [12]: > 96.4 µM
- TGI [49]: > 100 µM
- TGI [50]: > 100 µM
- TGI [51]: > 100 µM
- TGI [13]: > 85 µM
- TGI [15]: > 100 µM
- TGI [16]: > 100 µM
- TGI [17]: > 100 µM
- TGI [18]: > 100 µM
- TGI [19]: > 100 µM
- TGI [52]: > 78.7 µM
- TGI [20]: > 100 µM
- TGI [21]: > 100 µM
- TGI [22]: > 100 µM
- TGI [23]: > 95.8 µM
- TGI [24]: > 100 µM
- TGI [25]: > 100 µM
- TGI [26]: > 100 µM
- TGI [27]: > 100 µM
- TGI [28]: > 100 µM
- TGI [53]: > 100 µM
- TGI [54]: > 100 µM
- TGI [29]: > 69.1 µM
- TGI [30]: > 100 µM
- TGI [31]: > 100 µM
- TGI [32]: 47.9 µM
- TGI [33]: > 100 µM
- TGI [34]: > 100 µM
- TGI [35]: > 100 µM
- TGI [36]: > 100 µM
- TGI [37]: > 100 µM
- TGI [38]: > 100 µM
- TGI [39]: > 51.2 µM
- TGI [40]: > 100 µM
- TGI [41]: > 100 µM
- TGI [42]: > 100 µM
- TGI [43]: > 100 µM
- TGI [44]: > 100 µM
- TGI [55]: > 100 µM
- TGI [45]: > 100 µM

SMILES: CC(C)(C)c1ccc(S(=O)(=O)Oc2ccc3c4c(c(=O)oc3c2)CCCCC4)cc1
- GI50 [56]: 25.3 µM
- TGI [56]: > 100 µM
- GI50 [1]: 6.53 µM
- TGI [1]: 36.3 µM
- GI50 [2]: 14.2 µM
- TGI [2]: 39.8 µM
- GI50 [46]: 14.4 µM
- TGI [46]: 34.6 µM
- GI50 [3]: 17.7 µM
- TGI [3]: > 100 µM
- GI50 [47]: 10.9 µM
- TGI [47]: 43.5 µM
- GI50 [4]: > 100 µM
- TGI [4]: > 100 µM
- GI50 [5]: 14.4 µM
- TGI [5]: > 100 µM
- GI50 [6]: 37.9 µM
- TGI [6]: > 100 µM
- GI50 [8]: > 100 µM
- TGI [8]: > 100 µM
- GI50 [9]: 7.06 µM
- TGI [9]: > 100 µM
- GI50 [48]: 7.92 µM
- TGI [48]: > 100 µM
- GI50 [10]: 21.5 µM
- TGI [10]: 46.2 µM
- GI50 [11]: 1.22 µM
- TGI [11]: 12.2 µM
- GI50 [12]: 15.2 µM
- TGI [12]: 74.3 µM
- GI50 [49]: 7.95 µM
- TGI [49]: > 100 µM
- GI50 [50]: 14.9 µM
- TGI [50]: 48.5 µM
- GI50 [13]: > 100 µM
- TGI [13]: > 100 µM
- GI50 [14]: 32.5 µM
- TGI [14]: > 100 µM
- GI50 [15]: 20.4 µM
- TGI [15]: > 100 µM
- GI50 [16]: 24.8 µM
- TGI [16]: 76.5 µM
- GI50 [17]: 18.2 µM
- TGI [17]: > 100 µM
- GI50 [18]: 15.2 µM
- TGI [18]: 49.3 µM
- GI50 [19]: 34.6 µM
- TGI [19]: > 100 µM
- GI50 [52]: > 100 µM
- TGI [52]: > 100 µM
- GI50 [20]: 9.94 µM
- TGI [20]: > 100 µM
- GI50 [21]: 13.5 µM
- TGI [21]: > 100 µM
- GI50 [22]: 7.3 µM
- TGI [22]: > 100 µM
- GI50 [23]: 19.2 µM
- TGI [23]: > 100 µM
- GI50 [24]: 13.9 µM
- TGI [24]: > 100 µM
- GI50 [25]: 18.4 µM
- TGI [25]: > 100 µM
- GI50 [26]: 8.13 µM
- TGI [26]: 40.7 µM
- GI50 [27]: 37 µM
- TGI [27]: > 100 µM
- GI50 [28]: 21.8 µM
- TGI [28]: > 100 µM
- GI50 [53]: 2.22 µM
- TGI [53]: > 100 µM
- GI50 [54]: 3.18 µM
- TGI [54]: > 100 µM
- GI50 [29]: 17.8 µM
- TGI [29]: 63.5 µM
- GI50 [30]: 39.7 µM
- TGI [30]: > 100 µM
- GI50 [31]: 20.9 µM
- TGI [31]: > 100 µM
- GI50 [32]: 24.2 µM
- TGI [32]: > 100 µM
- GI50 [33]: 16.5 µM
- TGI [33]: 55.6 µM
- GI50 [34]: 24.1 µM
- TGI [34]: > 100 µM
- GI50 [35]: 5.48 µM
- TGI [35]: 85.4 µM
- GI50 [36]: 19.7 µM
- TGI [36]: 52.2 µM
- GI50 [37]: 29.3 µM
- TGI [37]: > 100 µM
- GI50 [38]: 16.4 µM
- TGI [38]: 52.1 µM
- GI50 [39]: 13.3 µM
- TGI [39]: 36.8 µM
- GI50 [40]: 85.6 µM
- TGI [40]: > 100 µM
- GI50 [41]: 5.17 µM
- TGI [41]: > 100 µM
- GI50 [42]: 18.1 µM
- TGI [42]: 36.4 µM
- GI50 [43]: 12.5 µM
- TGI [43]: 54.4 µM
- GI50 [44]: 7.46 µM
- TGI [44]: > 100 µM
- GI50 [55]: 3.19 µM
- TGI [55]: 33.6 µM
- GI50 [45]: 12.7 µM
- TGI [45]: 44 µM
